Measurements as given in patent US20030114362A1, “Penta-or tetrapeptide binding to somatostatin receptors and the use of the same” (Novaspin Biotech GmbH, priority 2001, published 2003).
Starred links: 1 amine or outer side, 2 acyl side, 3 side chain; linkers in the order of their positions; H or OH if unused. Non-standard residues stand in square brackets, D forms with d. Residues, ends and D or L forms follow the SMILES beside them. ξ: configuration not given here. *: point of attachment. X3 = CC1(C)O[C@H]2O[C@H](C(=O)[*:2])[C@@H](N[*:1])[C@H]2O1; X1 = CC1(C)OC2[C@H](OC(C(O)C(=O)[*:2])[C@H]2N[*:1])O1; X2 = CC1(C)OC2[C@H](O[C@H](C(=O)[*:2])[C@H]2N[*:1])O1; Bip = N[C@@H](Cc1ccc(-c2ccccc2)cc1)C(=O)O; Trt = c1ccc(C(c2ccccc2)(c2ccccc2)*)cc1; Bta = N[C@@H](Cc1csc2ccccc12)C(=O)O; ξW = NC(Cc1c[nH]c2ccccc12)C(=O)O; Thr(3ξ) = CC(O)[C@H](N)C(=O)O; ξY = NC(Cc1ccc(O)cc1)C(=O)O; Nle = CCCC[C@H](N)C(=O)O; ξF = NC(Cc1ccccc1)C(=O)O; ξK = NCCCCC(N)C(=O)O; Bn = c1ccc(C*)cc1

What was measured:
[1] = system: Substance P release from sensory nerve terminals; test: Release of Substance P in vitro from electrically stimulated rat tracheae (RIA); details: for Substance P release, stim. / inhibition of Substance P release / Substance P release, post stim. / Substance P release, pre stim.: 500 nmol; for Substance P release, stim.: electrical field stimulation 40 V, 0.1 ms, 10 Hz, 120 s; for Substance P release, stim. / Substance P release, post stim. / Substance P release, pre stim.: released amount of peptide per tissue weight; for inhibition of Substance P release: electrically evoked release; for Substance P release, post stim.: poststimulated fraction; for Substance P release, pre stim.: prestimulated fraction; for Substance P release evoked by electrical stimulation of sensory nerve terminals (in words): compared with TT-232
Experimental: Effect of TG, SGA, TR, and TT-232 on the Release of Substance P in vitro Methods:
After exsanguination the tracheae of 2-2 female Wistar rats were removed and perfused (1 ml min^−1) in an organ bath (1.8 ml) at 37° C. for 60 min with oxygenated (95% O2 and 5% CO2) Krebs solution of the following composition (in mM): NaCl 119, NaHCO3 25, KH2PO4 1.2, MgSO4 1.5, KCl 4.7, CaCl2 2.5, glucose 11. After stopping the flow the solution was changed 3 times for 8 min (prestimulated—stimulated—poststimulated). Electrical field stimulation (40 V, 0.1 ms, 10 Hz, 120 s) was performed to induce release of sensory neuropeptides from the tissue pieces in the presence or absence of SGTG, SGA, SGTH, or TT-232 (500-500 nM). The fractions were collected in ice-cold tubes and the wet weight of the tracheae were measured. Concentration of SP was determined by specific radioimmunoassay (RIA) methods developed in our laboratory (Németh, J., Oroszi, G., Thán, M., Helyes, Zs., Pintér, E., Farkas, B. and Szolcsányi, J.: Substance P radioimmunoassay for quantitative characterization of sensory neurotransmitter release. Neurobiology, 7, 437-444, 1999) and was expressed as the released amount of peptide per tissue weight.

[2] = system: A431 (an epidermoid cancer); details: A431, MB and MTT assays
Experimental: (§3) Each compound was tested under 4 conditions: 6 h (to exclude necrosis) and 48 h to see inhibition of proliferation and apoptosis.

[3] = system: Panc-1 (a well differentiated pancreatic adenocarcinoma); details: Panc-1, MB and MTT assays
Experimental: as §3

[4] = system: A431 and Panc-1; details: number of cell deaths after 6 h of incubation
Experimental: The Compounds shown below were tested on two cell-lines, A431 (A. T. C. C. reference No. CRL-1555, c.f. American Type Culture Collection, http://phage.atcc.org/cgi-bin/searchengine/longview.cgi?view=ce,663682,CRL-1555&text=a-431, 2001, pp. http://phage.atcc.org/cgi-bin/searchengine/longview.cgi?view-ce,663682,CRL-661555&text=a-663431; http://phage.atcc.org/cgi-bin/searchengine/longview.cgi?view=ce,663682,CRL-661555&text=a-663431) (an epidermoid cancer) and Panc-1 (A.T.C.C. reference No. CRL-1469, c.f. American Type Culture Collection, http://phage.atcc.org/cgi-bin/searchengine/longview.egi?view=ce,609764,CRL-1469&text=panc-1) (a well differentiated pancreatic adenocarcinoma), both of human origin, using the MTT (Carmichael J et al. Cancer Res. 47(4): pp. 936-42, 1987.) and MB (Oliver M H, Harrison N K, Bishop J E, Cole P J, Laurent G J; J Cell Sci 1989 March;92 ( Pt 3):513-8) assays. [drawing 25]
Each compound was tested under […]: 6 h (to exclude necrosis) and 48 h to see inhibition of proliferation and apoptosis.

[5] = system: multi-drug resistant cell line Klon 2 (10×80); test: XTT/PMS cytotoxicity assay, multidrug resistant hepatoma cells; type: cell-based, rat; details: 72 hrs incubation
Text: (§1) Rat hepatoma cells were cultivated in a F 12 medium (GibcoBRL), to which 5% of foetal calf serum had been added, in a atmosphere saturated with humidity (>95%) and having a CO2 content of 8% in air. The cell line named “Klon 2” was isolated by Venetianer et al. (Cytogentc.Cell.Genet 28:280-283, 1980). The cell line 2 (10×80)T1 is a sub-clone of Klon 2 having a moderate multi-drug resistance 8 (Pirity, Hever-Szabo and Venetianer, Cytotechnology 19:207-214, 1996). The degree of resistance of cell line 2 (10×80) was determined by a Niagara blue exclusion test, the cells being exposed to different concentrations of the following cytostatic agents for 72 hrs.
(§2) The XTT/PMS Assay (Scuderio et al., Cancer Res. 48:4827-4833, 1988; Roehm et al., J.Immun.Methods 142:257-265, 1991) was utilised to determine the cytotoxicity of the compounds. For this purpose, the viability of the sensitive cell line Klon 2 was tested in comparison with that of the multi-drug resistant cell line Klon 2 (10×80). An identical number of cells was applied to a 96 cell culture plate. […] The cell viability was determined by triple determination for each concentration by means of the XTT/PMS dye test (Scuderio et al., Cancer Res. 48:4827-4833, 1988; Roehm et al., J.Immun.Methods 142:257-265,1991). […]

[6] = system: sensitive cell line Klon 2; test: XTT/PMS cytotoxicity assay, drug sensitive hepatoma cells; type: cell-based, rat; details: Klon 2, XTT/PMS, 72 hrs incubation
Text: as §1, §2

Compound	IC50 [2] [µM]	IC50 [3] [µM]	Necrosis [4]	further results
CC1(C)OC2[C@H](O[C@@H]3C(=O)N[C@@H](Cc4ccccc4)C(=O)N[C@@H](Cc4c[nH]c5ccccc45)C(=O)N[C@@H](CCCCN)C(=O)N[C@@H]23)O1 (stereo partly drawn) [SGA, cyclo[-Phe-Trp-Lys-Z1-]]				Substance P release, stim. [1]: 4.81; inhibition of Substance P release [1]: 28.4%; Substance P release, post stim. [1]: 2.07; Substance P release, pre stim. [1]: 1.81; Substance P release evoked by electrical stimulation of sensory nerve terminals (in words) [1]: inhibited
CCCC[C@@H]1NC(=O)[C@@H](Cc2c[nH]c3ccccc23)NC(=O)[C@H](Cc2ccc(O)cc2)NC(=O)[C@H]2O[C@@H]3OC(C)(C)O[C@@H]3[C@@H]2NC(=O)[C@H]([C@@H](C)OC(c2ccccc2)(c2ccccc2)c2ccccc2)NC1=O [SGnc 7, cyclo[-D-Trp-Nle-Thr(OTrt)-Z1-Tyr-]] (cyclo([Nle]T(Trt)[X3]Y[dW]))	10	10	none	
C[C@@H](OC(c1ccccc1)(c1ccccc1)c1ccccc1)C1NC(=O)[C@H](CCCCN)NC(=O)[C@H](Cc2csc3ccccc23)NC(=O)[C@H](Cc2ccc(O)cc2)NC(=O)[C@H]2O[C@@H]3OC(C)(C)OC3[C@@H]2NC1=O (some centres unmarked) [SGnc 8]	50	40	some	
C[C@@H](OC(c1ccccc1)(c1ccccc1)c1ccccc1)C1NC(=O)[C@H](CCCCN)NC(=O)[C@H](Cc2ccc3ccccc3c2)NC(=O)[C@H](Cc2ccc(O)cc2)NC(=O)[C@H]2O[C@@H]3OC(C)(C)OC3[C@@H]2NC1=O (some centres unmarked) [SGnc 10]	55	40	some	
CC(OC(c1ccccc1)(c1ccccc1)c1ccccc1)[C@@H]1NC(=O)C(CCCCN)NC(=O)[C@@H](Cc2c[nH]c3ccccc23)NC(=O)C(Cc2ccccc2)NC(=O)C(O)C2O[C@@H]3OC(C)(C)OC3[C@@H]2NC1=O (stereo partly drawn) [SGnc 18, c[-D-Trp-Lys-Thr(OTrt)-Z2-Phe-]] (cyclo([Thr(3ξ)](Trt)[X1][ξF][dW][ξK]))	~50	~50	some	
CC1(C)OC2[C@H](OC3C(O)C(=O)NC(Cc4ccccc4)C(=O)N[C@H](Cc4c[nH]c5ccccc45)C(=O)NC(CCCCN)C(=O)N[C@@H](Cc4ccc(-c5ccccc5)cc4)C(=O)N[C@H]32)O1 (stereo partly drawn) [SGnc 20, cyclo[-D-Trp-Lys-Thr(OTrt)-Z2-Phe-]] (cyclo([Bip][X1][ξF][dW][ξK]))	~60	~60	some	
CC(OCc1ccccc1)[C@@H]1NC(=O)C(CCCCN)NC(=O)C(Cc2c[nH]c3ccccc23)NC(=O)C(Cc2ccc(O)cc2)NC(=O)[C@H]2O[C@@H]3OC(C)(C)OC3[C@@H]2NC1=O (stereo partly drawn) [SGnc 38, cyclo[-D-Trp-Lys-Thr(OBzl)-Z1-Tyr-]] (cyclo([Thr(3ξ)](Bn)[X2][ξY][ξW][ξK]))	~50	~50	some	
CC(OC(c1ccccc1)(c1ccccc1)c1ccccc1)[C@@H]1NC(=O)C(CCCCN)NC(=O)[C@@H](Cc2csc3ccccc23)NC(=O)C(Cc2ccc(O)cc2)NC(=O)[C@H]2O[C@@H]3OC(C)(C)OC3[C@@H]2NC1=O (some centres unmarked) [SGnc 50]	~38	~38	none	
CC1(C)OC2[C@H](O[C@@H]3C(=O)NC(Cc4ccc(O)cc4)C(=O)N[C@@H](Cc4csc5ccccc45)C(=O)NC(CCCCN)C(=O)N[C@@H](Cc4ccc(OCc5ccccc5)cc4)C(=O)N[C@@H]23)O1 (some centres unmarked) [SGnc 51] (cyclo([Bta][ξK]Y(Bn)[X2][ξY]))	35	35	almost none	
c[-D-Trp-Lys-1-Nal-Z1-Phe-] [SGnc 15]	~110	~110	some	
c[-D-Trp-Lys-Bpa-Z1-Phe-] [SGnc 14]	~100	~100	almost none	
c[-D-Trp-Lys-Thr(OTrt)-Z1-Tyr-]				Substance P release, stim. [1]: 5.14; inhibition of Substance P release [1]: 19.3%; Substance P release, post stim. [1]: 2.31; Substance P release, pre stim. [1]: 1.76; Substance P release evoked by electrical stimulation of sensory nerve terminals (in words) [1]: inhibited; IC50 [5]: 25 µM; IC50 [6]: 31 µM
c[-Tyr-Trp-Lys-Thr-Z1-]				IC50 [5]: 47 µM; IC50 [6]: 75 µM
